From PubChem BioAssay AID179 (DTP/NCI, 2004)
“And” between values parts separate entries of the source, which are not always exact repeats. Equal values may be shown once. The source made the active and inactive calls.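 The calls were made as follows: active = compounds giving half or more protection of infected cells from virus-caused growth loss, again on retest; inactive = the rest.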

Tested on: CEM cells HIV-1 protection, formazan growth assay
Assay: NCI AIDS Antiviral Assay
Details: for IC50: measured here: growth of uninfected CEM cells
Method in brief: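 Steps: treat uninfected and HIV-1-infected human CEM cells at five drug levels; quantify growth by soluble formazan; retest any compound reaching 50% protection; classify actives from the retest.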

Work on `CC(C)Oc1c(-c2ccc(F)cc2)c(O)c2c3c1oc(=O)n3C=CC2C` (centres undefined) yielded an EC50 of 13.2 µM and an IC50 of 14.8 µM.
For `O=C(c1ccccc1)c1ccc(C(c2c(O)c3ccccc3oc2=O)c2c(O)c3ccccc3oc2=O)cc1`, the EC50 was > 200 µM and the IC50 was 34.7 µM.
In the case of `COc1ccc(C2c3cc4c(cc3OC(O)(CO)C2C(=O)O)OCO4)c(OC)c1OC` (centres undefined) (tested in a mixture with another compound), the outcome is reported as “inactive”.
In the case of `N#Cc1c(N)c2c(c(-c3ccccc3)c1-c1ccccc1)C(=O)N(NC(=S)Nc1ccccc1)C2=O`, the EC50 is reported as > 58.9 µM and the IC50 is reported as 47.9 µM.
Work on `FC(F)(Sc1ccccn1)c1nc2ccccc2o1` yielded an EC50 of 14.8 µM and an IC50 of 89.1 µM.
Work on `O=C(O)CCSSCCCS(=O)O` yielded an EC50 of 105 µM and an IC50 of 191 µM.
In the case of `Cc1cccc(NC(=O)c2cc3cc(N=Nc4ccccc4Cl)ccc3oc2=O)c1`, the EC50 is reported as > 24 µM and the IC50 is reported as > 24 µM.
In the case of `O=C(CC1SC(=Nc2ccccc2Cl)NC1=O)Nc1ccc(Cl)cc1` (centres undefined), the EC50 is reported as > 631 µM and the IC50 is reported as > 200 µM.
`COc1cc([C@@H]2c3cc4c(cc3[C@@H](OC3OC5CO[C@@H](c6cccs6)OC5C(O)C3O)[C@H]3COC(=O)[C@H]23)OCO4)cc(OC)c1O` (some centres undefined) was tested, and the EC50 was > 0.398 µM and the IC50 was 0.00174 µM.
In the case of `Nc1ccn(CC2OCC(CO)O2)c(=O)n1` (centres undefined), the EC50 is reported as > 3470 µM and the IC50 is reported as 2950 µM and 3020 µM.
With `CCOC(=O)c1cn(CC)c2ccc3c(c2c1=O)S(=O)(=O)C=C3` the EC50 was > 200 µM and the IC50 was 29.5 µM.
In the case of `CCOC(=O)C(NC(=O)c1ccccc1)(N1CCOCC1)C(F)(F)F` (centres undefined), the EC50 is reported as > 200 µM and the IC50 is reported as > 200 µM.
With `COC(=O)N/N=c1\cc(C(=O)Nc2ccc(C)c(C)c2)oc2cc(O)ccc12` the EC50 was > 661 µM and the IC50 was 575 µM.
In the case of `CCCCC(C(=O)C(=O)Nc1ccccc1CC)C(=O)C(C)C` (centres undefined), the outcome is reported as “inactive”.
`O=C1c2ccccc2CC1C1(O)C(=O)Nc2c(Cl)cc(Cl)cc21` (centres undefined) was tested, and the EC50 was > 102 µM and the IC50 was > 102 µM.
With `Cc1cc(/C=C2\C=Cc3ccccc32)ccc1N(C)C` the EC50 was > 38 µM and the IC50 was > 38 µM.
In the case of `CCC1(O)CCCC2C3CCC4CC(=O)CCC4(C)C3C(=O)CC21C` (centres undefined), the EC50 is reported as > 200 µM and the IC50 is reported as 105 µM.
`NNC(=O)N/N=C1\C(=O)N(c2ccc(Cl)c(Cl)c2)C(=O)C(=O)C1c1nc2ccccc2s1` (centres undefined) was tested, and the outcome was “inactive”.
With `COc1ccc(-c2nc3ccccc3c(=S)n2OC(C)=O)cc1` the EC50 was > 200 µM and the IC50 was 1.7 µM.
For `S=C(Oc1ccccc1)SSC(=S)Oc1ccccc1`, the EC50 was > 200 µM and the IC50 was 19.1 µM.
With `CC(=O)C(N=Nc1ccc(S(=O)(=O)NC2ONC(C)C2C)cc1)C(=O)Nc1ccc(Cl)cc1` (centres undefined) the EC50 was > 200 µM and the IC50 was 36.3 µM.
With `CC(=C/c1ccccc1)/C=C1/NC(=S)NC1=O` the EC50 was > 200 µM and the IC50 was > 200 µM.
With `CCOc1ccc(Nc2nc3c(s2)C(=O)c2ccccc2C3=O)cc1` the EC50 was > 110 µM and the IC50 was 9.55 µM.
In the case of `CCCCN(CCCC)C(=O)C(=O)C(C)C(=O)CC` (centres undefined), the outcome is reported as “inactive”.
With `CC1(O)CCC2(CCC(C)(O)CC2=O)C(=O)C1` (centres undefined) the EC50 was > 200 µM and the IC50 was > 200 µM.
In the case of `Cn1c(=O)c(NC(=O)C(Cl)(Cl)Cl)nc2ccccc21`, the EC50 is reported as > 93.3 µM and the IC50 is reported as > 93.3 µM.
`O=C1Oc2ccccc2C(=O)/C1=C/N1C(=O)N/C(=C\c2ccccc2O)C1=O` was tested, and the EC50 was > 200 µM and the IC50 was 123 µM.
With `COc1ccc(N=N/C(=N/NC(=O)c2ccccc2)c2ccc(N(CCC#N)CCC#N)cc2C)cc1` the EC50 was > 200 µM and the IC50 was 11.5 µM.
In the case of `C=CCN1C(=O)CC(=O)N(NC2=NNC3(C(=O)N2)c2ccccc2-c2ccccc23)C1=S`, the EC50 is reported as > 200 µM and the IC50 is reported as 79.4 µM.
For `COc1cc2c(c3oc(=O)cc(C)c13)C(=O)[C@H](C)[C@@H](C)O2`, the EC50 was > 200 µM and the IC50 was 126 µM.
With `CC(=O)C1=C(O)CC2CC3c4[nH]c5ccccc5c4CCN3CC2C1` (centres undefined) the EC50 was > 204 µM and the IC50 was 102 µM.
For `COC(=O)c1nsc(OC)c1Cl`, the EC50 was > 200 µM and the IC50 was > 200 µM.
In the case of `CCCCCCCCCCCCCCCCCCOC(COP(=O)(O)OCC1CCC(n2cnc3c(=O)[nH]cnc32)O1)COP(=O)(O)OCC1OC(n2cc(C)c(=O)[nH]c2=O)CC1N=[N+]=[N-]` (centres undefined), the EC50 is reported as 1.17 µM and the IC50 is reported as 162 µM.
In the case of `Cc1nnc2n1-c1ccc(Cl)cc1C(c1ccccc1)=[N+]([O-])C2`, the EC50 is reported as > 398 µM and the IC50 is reported as 355 µM.
With `CC1=C2c3c(C)ccc4ccc(C)c(c34)C2(O)C(C)C1=O` (centres undefined) the EC50 was > 200 µM and the IC50 was > 200 µM.
`Cc1cccc(C(C)C)c1NC(=O)/C(Cc1c([N+](=O)[O-])cccc1[N+](=O)[O-])=N/NC(=O)CC#N` was tested, and the EC50 was > 145 µM and the IC50 was > 145 µM.
`CC(C)C(/C=C/c1ccc(Cl)cc1)=N\NC(=S)NN` was tested, and the EC50 was > 200 µM and the IC50 was 12 µM.
With `N#CCCC1(CCC#N)S(=O)(=O)OCCOS1(=O)=O` the EC50 was > 200 µM and the IC50 was 44.7 µM.
`COc1cc2c(c3c1C=CCO3)C(=O)c1ccccc1C2=O` was tested, and the outcome was “inactive”.
With `C=C(C)[C@@]1(O)O[C@H]2C[C@@]3(C)OC(=CC3=O)/C(C)=C\[C@@H]3OC(=O)[C@@]1(C)[C@H]32` the EC50 was > 200 µM and the IC50 was 5.25 µM.
For `S=C(Nc1ccc2c(c1)oc1ccccc12)c1cccs1`, the EC50 was > 200 µM and the IC50 was > 200 µM.
With `O=C(OCCO)C1CC2CC1C1(C2)OCCO1` (centres undefined) the outcome was “inactive”.
With `C/C(Cl)=N\OC(=O)Nc1ccc(C)cc1` the EC50 was > 200 µM and the IC50 was 18.6 µM.
For `O=C1c2cscc2C(=O)c2c(Cl)sc(Cl)c21`, the EC50 was > 0.2 µM and the IC50 was > 0.2 µM.
In the case of `CCOC(=O)Nn1c(C)nnc1-c1ccccc1`, the EC50 is reported as > 200 µM and the IC50 is reported as > 200 µM.
`O=C1C(=C2C(=O)c3ccccc3[N+]2=O)N([O-])c2ccccc21` was tested, and the outcome was “inactive”.
In the case of `CCCCCN(CCCCC)CC(=O)OCC1(C)CCCC2(C)C3CCC(C(C)C)=CC3=CCC12` (centres undefined), the EC50 is reported as > 200 µM and the IC50 is reported as 35.5 µM.
With `O=C1c2c(O)cc(O)cc2OC(c2ccc(O)c(O)c2)C1O` (centres undefined) the EC50 was > 200 µM and the IC50 was > 200 µM.
With `COc1cc(C2c3cccc4cccc(c34)C3CCC(=O)N32)cc(OC)c1O` (centres undefined) the EC50 was > 50.1 µM and the IC50 was 1.32 µM.
With `C/C=C(/C)C(=O)O[C@@H]1c2c(C)coc2C[C@H]2CC[C@H](O)[C@H](C)[C@]21C` the EC50 was > 200 µM and the IC50 was 58.9 µM.
With `O=C1c2ccccc2C(=O)c2cc3c(cc21)CS(=O)C3` the outcome was “inactive”.
In the case of `CCCCCCCCSC(=O)NCCCC`, the outcome is reported as “inactive”.
For `COC(=O)CC1NC(=O)[C@@H]1C(C)O` (some centres undefined), the EC50 was > 251 µM and the IC50 was > 251 µM.
For `Cc1cc(C)c(C2[C@H]3C(=O)N(c4ccc(Cc5ccc(N6C(=O)[C@@H]7ON(c8ccccc8)C(c8c(C)cc(C)cc8C)[C@@H]7C6=O)cc5)cc4)C(=O)[C@H]3ON2c2ccccc2)c(C)c1` (some centres undefined), the EC50 was > 22.4 µM and the IC50 was > 22.4 µM.
With `COC(=O)C1CC2C=CC1N(C(=O)OCc1ccccc1)C2` (centres undefined) the EC50 was > 200 µM and the IC50 was 170 µM.
With `O=C(Nc1ccc(NC(=O)c2ccc(C3=NCCN3)cc2)cc1)Nc1ccc(C2=NCCN2)cc1` the EC50 was > 200 µM and the IC50 was 50.1 µM.
For `C=CCOCn1ccc(N)nc1=O`, the outcome was “inactive”.
For `CC(=O)OC1CC2C3(C)CC4O[C@@](C)(O)CC(C)C4[C@@]3(C)CC[C@]23C[C@@]32CC[C@H](OC3OCC(O)C(O)C3O)C(C)(C)C12` (some centres undefined), the EC50 was > 53.7 µM and the IC50 was 22.4 µM.
In the case of `Cc1cc2c(C(C)C)c(O)c(O)c(C=Nc3ccc(Cl)cc3)c2c(O)c1-c1c(C)cc2c(C(C)C)c(O)c(O)c(C=Nc3ccc(Cl)cc3)c2c1O`, the EC50 is reported as > 200 µM and the IC50 is reported as 11.7 µM.
For `CCOC(=O)C1Cc2c([nH]c(=O)[nH]c2=O)OC1(C)c1ccccc1` (centres undefined), the EC50 was > 200 µM and the IC50 was > 200 µM.
In the case of `COC1(C)C(=O)N2C1N(C(=O)OCc1ccccc1)CC2(C)C` (centres undefined), the EC50 is reported as > 251 µM and the IC50 is reported as > 251 µM.
In the case of `Cn1c(CNc2ccc(-c3n[nH]c(=S)n3C)cc2)n[nH]c1=S`, the EC50 is reported as > 200 µM and the IC50 is reported as > 200 µM.
